{
  "source": "patent US10603345B2",
  "about": "“Pharmaceutical composition for treating respiratory disease” (Kunming Institute of Botany, The Chinese Academy of Sciences, priority 2015, dated 2020)",
  "assay_type_in_all_cases": "in vivo",
  "key": {"[1]": {"tested_on": "white blood cell count and classification in BALF of COPD model mouse", "assay": "Effect on white blood cell count and classification in BALF of COPD model mouse", "conditions": "COPD mouse (LPS plus smoke exposure 30 days), ig 7 d, dose/kg: dexamethasone 1 mg, Test group 1 50, 2 25, 3 10, picrinine 10, vallesamine 6, scholaricine 7, 19-epi-scholaricine 2 mg, x ± SD", "description": "(§1) Animal source: 25˜30 g male ICR mouse, from laboratory animal department of Kunming Medical University, License No. SCXK (Dian) 2011-0004.\n(§2) Method and route: lipopolysaccharide (LPS) plus smoke exposure was used for 30 days to induce mouse chronic obstructive pulmonary disease model; and after intragastrical administration for 7 d at a dose of 20 mL/kg, the animal was sacrificed at the eighth day.\n(§3) Picrinine group (10 mg/kg), Vallesamine group (6.0 mg/kg), Scholaricine group (7.0 mg/kg), 19-epischolaricine group (2.0 mg/kg).\n(§4) Sample preparation: all the samples were prepared by using 0.5% carboxymethylcellulose sodium (0.5% CMC-Na).\nGroup and dose: in Test group 1, the ratio of picrinine, vallesamine, scholaricine and 19-epischolaricine by weight was 48:40:29:10, and the other groups and doses thereof were as described in Example 10.\nTest index: total number of white blood cells and inflammatory cell classification in bronchoalveolar lavage fluid (BALF) were used as indexes, and were determined by full-automatic hemocytometer."}, "[2]": {"tested_on": "CRP in serum in COPD model mouse", "assay": "Effect on CRP in serum in COPD model mouse", "conditions": "ELISA, ig 7 d, dose/kg: dexamethasone 1 mg, Test group 1 50, 2 25, 3 10, picrinine 10, vallesamine 6, scholaricine 7, 19-epi-scholaricine 2 mg, x ± SD", "description": "as §1, §2, §3, §4\nGroup and dose: in Test group 1, the ratio of picrinine, vallesamine, scholaricine and 19-epischolaricine by weight was 25:19:20:4, and the other groups and doses thereof were as described in Example 10.\nTest index: CRP in serum was used as index, and was determined by enzyme linked immunosorbent assay."}, "[3]": {"tested_on": "SOD in serum and homogenate of COPD model mouse", "assay": "Effect on SOD in serum and homogenate of COPD model mouse", "conditions": "ig 7 d, dose/kg: dexamethasone 1 mg, Test group 1 50, 2 25, 3 10, picrinine 10, vallesamine 6, scholaricine 7, 19-epi-scholaricine 2 mg, x ± SD", "description": "as §1, §2, §3, §4\nGroup and dose: in Test group 1, the ratio of picrinine, vallesamine, scholaricine and 19-epischolaricine by weight was 16:11:12:3, and the other groups and doses thereof were as described in Example 10.\nTest index: SOD in serum and lung homogenate was used as index, and was determined by xanthine oxidase method."}, "[4]": {"tested_on": "MDA in serum and homogenate of COPD model mouse", "assay": "Effect on MDA in serum and homogenate of COPD model mouse", "conditions": "ig 7 d", "description": "as §1, §2, §3, §4\nGroup and dose: in Test group 1, the ratio of picrinine, vallesamine, scholaricine and 19-epischolaricine by weight was 9:6:5:1, and the other groups and doses thereof were as described in Example 10.\nTest index: MDA in serum and homogenate was used as index, and was determined by thibabituric acid method."}, "[5]": {"tested_on": "IL-4 in BALF of asthma model mouse", "assay": "Effect on IL-4 in BALF of asthma model mouse", "conditions": "ELISA, ig 7 d, dose/kg: dexamethasone 2.0 mg, Test group 1 50, 2 25, picrinine 5.0, vallesamine 3.0, scholaricine 3.0, 19-epi-scholaricine 3.5 mg, x ± SD", "description": "as §1\n(§5) Method and route: ovalbumin (OVA) was used to induce mouse asthma model, and after intragastrical administration for 7 d at a dose of 20 mL/kg, the animal was sacrificed at the eighth day.\n(§6) Test group 1: picrinine, vallesamine, scholaricine and 19-epischolaricine prepared in Example 1.7 were homogeneously mixed at different ratios by weight (50 mg/kg), Test group 2: the alkaloid composition prepared in Example 1.4 (25 mg/kg). […]\nas §4\nGroup and dose: in Test group 1, the ratio of picrinine, vallesamine, scholaricine and 19-epischolaricine by weight was 25:18:15:3, and the other groups and doses thereof were as described in Example 11. […]"}, "[6]": {"tested_on": "SOD in serum and BALF of asthma model mouse", "assay": "Effect on SOD in serum and BALF of asthma model mouse", "conditions": "ig 7 d, dose/kg: dexamethasone 2.0 mg, Test group 1 50, 2 25, picrinine 5.0, vallesamine 3.0, scholaricine 3.0, 19-epi-scholaricine 3.5 mg, x ± SD", "description": "as §1, §5, §6, §4\nGroup and dose: in Test group 1, the ratio of picrinine, vallesamine, scholaricine and 19-epischolaricine by weight was 12:10:9:2, and the other groups and doses thereof were as described in Example 11.\nTest index: SOD in serum and BALF was used as index, and was determined by xanthine oxidase method."}, "[7]": {"tested_on": "MDA in serum and BALF of asthma model mouse", "assay": "Effect on MDA in serum and BALF of asthma model mouse", "conditions": "ig 7 d, dose/kg: dexamethasone 2.0 mg, Test group 1 50, 2 25, picrinine 5.0, vallesamine 3.0, scholaricine 3.0, 19-epi-scholaricine 3.5 mg, x ± SD", "description": "as §1, §5, §6, §4\nGroup and dose: in Test group 1, the ratio of picrinine, vallesamine, scholaricine and 19-epischolaricine by weight was 8:6:5:1, and the other groups and doses thereof were as described in Example 11.\nTest index: MDA in serum and BALF was used as index, and was determined by thiobarbituric acid method."}, "[8]": {"tested_on": "LDH in serum of pulmonary fibrosis model mouse", "assay": "Effect on LDH in serum of pulmonary fibrosis model mouse", "conditions": "bleomycin pulmonary fibrosis mouse, ig 28 d, dose/kg: prednisone acetate 5 mg, Test group 1 50, 2 25, 3 12.5, picrinine 5.0, vallesamine 3.0, scholaricine 3.5, 19-epi-scholaricine 1.0 mg, x ± SD", "description": "(§7) Animal source: 30˜35 g male ICR mouse, from laboratory animal department of Kunming Medical University, License No. SCXK (Dian) 2011-0004.\n(§8) Method and route: bleomycin was used to induce mouse pulmonary fibrosis, and after intragastrical administration for 28 d at a dose of 20 mL/kg, the animal was sacrificed at the 29th day.\n(§9) Group and dose: Sham group, Model group, Positive control group, prednisone acetate (5 mg/kg) group, Test group 1: picrinine, vallesamine, scholaricine and 19-epischolaricine prepared in Example 1.7 were mixed at different ratios by weight (50 mg/kg), Test group 2: the alkaloid composition (25 mg/kg) prepared in Example 1.5, Test group 3: the alkaloid composition (12.5 mg/kg) prepared in Example 1.6, Picrinine group (5.0 mg/kg), Vallesamine group (3.0 mg/kg), Scholaricine group (3.5 mg/kg), and 19-epischolaricine group (1.0 mg/kg).\n(§10) Positive control drug: prednisone acetate tablet, Approval number: H33021207, 5 mg/tablet, produced by Zhejiang Xianju Pharmaceutical Co., Ltd., Batch No. 140146.\n(§11) Sample preparation: all the samples were prepared by using 0.5% carboxymethylcellulose sodium (0.5% CMC-Na). […]\nTest index: LDH in serum was used as index, and was determined by 2, 4-dinitrophenylhydrazine method."}, "[9]": {"tested_on": "Hyp in homogenate of pulmonary fibrosis model mouse", "assay": "Effect on Hyp in homogenate of pulmonary fibrosis model mouse", "conditions": "bleomycin pulmonary fibrosis mouse, ig 28 d, dose/kg: prednisone acetate 5 mg, Test group 1 50, 2 25, 3 12.5, picrinine 5.0, vallesamine 3.0, scholaricine 3.5, 19-epi-scholaricine 1.0 mg, x ± SD", "description": "as §7, §8, §9, §10, §11\nTest index: Hyp in homogenate was used as index, and was determined by enzyme linked immunosorbent assay."}},
  "data": [
    {"smiles": "COC(=O)C1=C2Nc3c(O)cccc3[C@@]23CCN2C[C@@H]([C@@H](C)O)[C@@H]1C[C@H]23", "note": "[scholaricine]", "values": [
      {"measurement": "Leukocyte number", "setting": "[1]", "result": "2.5 ± 3.5 ×10^5/mL"},
      {"measurement": "Neutrophil number", "setting": "[1]", "result": "0.66 ± 0.81 ×10^5/mL"},
      {"measurement": "CRP", "setting": "[2]", "result": "24.4 ± 2.4", "unit": "pg/mL"},
      {"measurement": "SOD homogenate", "setting": "[3]; lung homogenate", "result": "58.43 ± 7.04", "unit": "U/mL"},
      {"measurement": "SOD Serum", "setting": "[3]; serum", "result": "93.61 ± 12.37", "unit": "U/mL"},
      {"measurement": "content of MDA (serum or homogenate not given)", "setting": "[4]; vallesamine 6, scholaricine 7, 19-epi-scholaricine 2 mg/kg", "result": "significantly decrease"},
      {"measurement": "MDA Homogenate", "setting": "[4]; lung homogenate, dose/kg: dexamethasone 1 mg, Test group 1 50, 2 25, 3 10, picrinine 10, vallesamine 6, scholaricine 7, 19-epi-scholaricine 2 mg, x ± SD", "result": "6.09 ± 1.25", "unit": "nmol/mL"},
      {"measurement": "MDA Serum", "setting": "[4]; serum, dose/kg: dexamethasone 1 mg, Test group 1 50, 2 25, 3 10, picrinine 10, vallesamine 6, scholaricine 7, 19-epi-scholaricine 2 mg, x ± SD", "result": "12.21 ± 3.38", "unit": "nmol/mL"},
      {"measurement": "IL-4", "setting": "[5]", "result": "11.21 ± 3.62", "unit": "pg/mL"},
      {"measurement": "SOD lavage fluid", "setting": "[6]; BALF", "result": "76.78 ± 8.01", "unit": "U/mL"},
      {"measurement": "SOD Serum", "setting": "[6]; serum", "result": "73.36 ± 8.44", "unit": "U/mL"},
      {"measurement": "MDA lavage fluid", "setting": "[7]; BALF", "result": "2.43 ± 1.05", "unit": "nmol/mL"},
      {"measurement": "MDA Serum", "setting": "[7]; serum", "result": "9.19 ± 2.77", "unit": "nmol/mL"},
      {"measurement": "LDH", "setting": "[8]", "result": "12.5 ± 3.2", "unit": "U/g prot"},
      {"measurement": "Hyp", "setting": "[9]", "result": "6.5 ± 1.5", "unit": "μg/g prot"}
    ]}
  ]
}
